In US20260137703A1, “2-AMINO-PYRIDO[2,3-D]PYRIMIDIN-7(8H)-ONE AND 7-AMINO-1-PYRIMIDO[4,5-D]PYRIMIDIN-2(1 H)-ONE DERIVATIVES AS EGFR INHIBITORS FOR THE TREATMENT OF CANCER” (Cancer Research Technology Limited, priority 2022, published 2026):

Legend:
[1] = target: T1, Phospho-EGFR (Tyr1068) in H1975 cells (Homo sapiens, UniProt P00533, L858R/T790M); assay: HTRF pEGFR/total EGFR in H1975 cells; type: cell-based; conditions: ratio pEGFR/total EGFR, compound 3 hours
T1 construct: host or cells: H1975
T1 sequence (P00533 25-1210 T790M/L858R): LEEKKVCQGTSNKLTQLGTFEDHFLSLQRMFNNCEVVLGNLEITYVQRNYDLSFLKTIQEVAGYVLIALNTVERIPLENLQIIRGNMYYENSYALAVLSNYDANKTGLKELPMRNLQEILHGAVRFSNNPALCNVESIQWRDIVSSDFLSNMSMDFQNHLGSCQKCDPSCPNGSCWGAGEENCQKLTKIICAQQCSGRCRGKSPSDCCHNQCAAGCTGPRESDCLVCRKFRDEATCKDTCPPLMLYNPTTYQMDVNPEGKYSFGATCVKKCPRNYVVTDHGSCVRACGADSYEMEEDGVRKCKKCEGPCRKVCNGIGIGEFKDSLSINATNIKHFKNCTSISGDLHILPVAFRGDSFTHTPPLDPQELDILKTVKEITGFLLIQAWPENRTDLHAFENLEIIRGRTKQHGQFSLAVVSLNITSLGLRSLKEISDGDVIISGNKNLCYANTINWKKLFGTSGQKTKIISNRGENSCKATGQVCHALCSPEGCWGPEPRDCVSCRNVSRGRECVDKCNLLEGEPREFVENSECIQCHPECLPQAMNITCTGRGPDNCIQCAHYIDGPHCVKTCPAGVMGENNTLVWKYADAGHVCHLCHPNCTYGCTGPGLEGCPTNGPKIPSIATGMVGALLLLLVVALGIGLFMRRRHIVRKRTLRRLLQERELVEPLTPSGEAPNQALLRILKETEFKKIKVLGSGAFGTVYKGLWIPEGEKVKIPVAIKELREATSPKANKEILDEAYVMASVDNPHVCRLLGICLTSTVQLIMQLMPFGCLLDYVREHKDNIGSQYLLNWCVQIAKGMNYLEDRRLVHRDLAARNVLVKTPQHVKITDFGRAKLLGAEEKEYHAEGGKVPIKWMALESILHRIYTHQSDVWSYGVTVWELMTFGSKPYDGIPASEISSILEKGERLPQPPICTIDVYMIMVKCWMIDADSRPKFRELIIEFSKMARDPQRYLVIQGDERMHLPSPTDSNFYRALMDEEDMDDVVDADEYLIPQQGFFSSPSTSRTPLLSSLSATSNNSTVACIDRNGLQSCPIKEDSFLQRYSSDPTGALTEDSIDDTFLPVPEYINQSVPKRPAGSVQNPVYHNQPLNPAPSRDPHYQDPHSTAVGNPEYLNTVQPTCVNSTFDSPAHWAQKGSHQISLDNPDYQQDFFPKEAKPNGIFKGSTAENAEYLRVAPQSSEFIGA
Procedure, shortened: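 H1975 cells (EGFR L858R/T790M) treated 3 h with compound in 0.1% DMSO, in duplicate, 24 h after plating. Lysates assayed by HTRF for pEGFR (Tyr1068) and total EGFR at 665/620 nm; values are pEGFR/total EGFR ratio as percent of 0 μM control.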

[2] = target: T2, Phospho-EGFR (Tyr1068) in H1975 C797S cells (CRISPR-edited EGFR C797S) (Homo sapiens, UniProt P00533, C797S/L858R/T790M); assay: HTRF pEGFR/total EGFR in H1975 C797S cells; type: cell-based; conditions: ratio pEGFR/total EGFR, compound 3 hours
T2 construct: host or cells: H1975 C797S (CRISPR-edited)
T2 sequence (P00533 25-1210 T790M/C797S/L858R): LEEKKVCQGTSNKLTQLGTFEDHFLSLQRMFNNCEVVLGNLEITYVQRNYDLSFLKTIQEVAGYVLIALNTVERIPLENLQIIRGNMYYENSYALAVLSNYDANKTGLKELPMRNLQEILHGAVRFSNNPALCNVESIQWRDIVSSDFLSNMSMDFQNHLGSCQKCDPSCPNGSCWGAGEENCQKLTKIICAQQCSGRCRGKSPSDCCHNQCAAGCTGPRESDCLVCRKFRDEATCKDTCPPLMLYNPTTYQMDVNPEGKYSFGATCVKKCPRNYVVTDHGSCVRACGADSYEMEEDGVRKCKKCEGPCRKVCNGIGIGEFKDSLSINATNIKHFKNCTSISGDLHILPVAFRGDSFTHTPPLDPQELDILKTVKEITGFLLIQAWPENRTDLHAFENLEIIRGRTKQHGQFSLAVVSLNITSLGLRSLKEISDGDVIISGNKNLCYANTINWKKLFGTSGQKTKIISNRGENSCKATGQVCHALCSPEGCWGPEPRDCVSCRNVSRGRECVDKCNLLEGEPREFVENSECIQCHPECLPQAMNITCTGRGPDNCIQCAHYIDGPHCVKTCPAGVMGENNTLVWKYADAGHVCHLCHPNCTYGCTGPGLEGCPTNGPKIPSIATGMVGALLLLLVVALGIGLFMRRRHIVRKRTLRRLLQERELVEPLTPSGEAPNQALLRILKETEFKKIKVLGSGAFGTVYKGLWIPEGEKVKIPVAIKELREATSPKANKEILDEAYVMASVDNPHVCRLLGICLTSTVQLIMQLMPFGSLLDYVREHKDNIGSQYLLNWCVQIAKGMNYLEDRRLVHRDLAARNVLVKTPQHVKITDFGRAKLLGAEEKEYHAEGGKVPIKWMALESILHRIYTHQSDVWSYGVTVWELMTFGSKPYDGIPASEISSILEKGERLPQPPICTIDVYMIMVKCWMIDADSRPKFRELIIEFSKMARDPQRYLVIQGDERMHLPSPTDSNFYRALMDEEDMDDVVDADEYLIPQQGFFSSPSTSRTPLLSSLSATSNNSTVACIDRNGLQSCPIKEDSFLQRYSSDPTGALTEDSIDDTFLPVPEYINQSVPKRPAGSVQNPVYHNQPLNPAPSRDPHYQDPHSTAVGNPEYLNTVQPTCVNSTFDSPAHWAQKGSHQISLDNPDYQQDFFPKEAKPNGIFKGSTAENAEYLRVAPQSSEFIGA
Procedure, shortened: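 Adhered H1975 C797S cells got compound for 3 h in duplicate at 0.1% DMSO final, then were lysed 30 min at room temperature. HTRF kits quantified phospho-EGFR (Tyr1068) and total EGFR (665/620 nm); results are pEGFR/total EGFR ratio as percent of 0 μM control.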

[3] = target: T3, Phospho-EGFR (Tyr1068) in A431 cells (Homo sapiens, UniProt P00533); assay: HTRF pEGFR/total EGFR in A431 cells with EGF stimulation; type: cell-based; conditions: ratio pEGFR/total EGFR, compound 2.5 hours then 100 ng/ml EGF 30 mins
T3 construct: endogenous in cells; host or cells: A431
T3 sequence (P00533 25-1210): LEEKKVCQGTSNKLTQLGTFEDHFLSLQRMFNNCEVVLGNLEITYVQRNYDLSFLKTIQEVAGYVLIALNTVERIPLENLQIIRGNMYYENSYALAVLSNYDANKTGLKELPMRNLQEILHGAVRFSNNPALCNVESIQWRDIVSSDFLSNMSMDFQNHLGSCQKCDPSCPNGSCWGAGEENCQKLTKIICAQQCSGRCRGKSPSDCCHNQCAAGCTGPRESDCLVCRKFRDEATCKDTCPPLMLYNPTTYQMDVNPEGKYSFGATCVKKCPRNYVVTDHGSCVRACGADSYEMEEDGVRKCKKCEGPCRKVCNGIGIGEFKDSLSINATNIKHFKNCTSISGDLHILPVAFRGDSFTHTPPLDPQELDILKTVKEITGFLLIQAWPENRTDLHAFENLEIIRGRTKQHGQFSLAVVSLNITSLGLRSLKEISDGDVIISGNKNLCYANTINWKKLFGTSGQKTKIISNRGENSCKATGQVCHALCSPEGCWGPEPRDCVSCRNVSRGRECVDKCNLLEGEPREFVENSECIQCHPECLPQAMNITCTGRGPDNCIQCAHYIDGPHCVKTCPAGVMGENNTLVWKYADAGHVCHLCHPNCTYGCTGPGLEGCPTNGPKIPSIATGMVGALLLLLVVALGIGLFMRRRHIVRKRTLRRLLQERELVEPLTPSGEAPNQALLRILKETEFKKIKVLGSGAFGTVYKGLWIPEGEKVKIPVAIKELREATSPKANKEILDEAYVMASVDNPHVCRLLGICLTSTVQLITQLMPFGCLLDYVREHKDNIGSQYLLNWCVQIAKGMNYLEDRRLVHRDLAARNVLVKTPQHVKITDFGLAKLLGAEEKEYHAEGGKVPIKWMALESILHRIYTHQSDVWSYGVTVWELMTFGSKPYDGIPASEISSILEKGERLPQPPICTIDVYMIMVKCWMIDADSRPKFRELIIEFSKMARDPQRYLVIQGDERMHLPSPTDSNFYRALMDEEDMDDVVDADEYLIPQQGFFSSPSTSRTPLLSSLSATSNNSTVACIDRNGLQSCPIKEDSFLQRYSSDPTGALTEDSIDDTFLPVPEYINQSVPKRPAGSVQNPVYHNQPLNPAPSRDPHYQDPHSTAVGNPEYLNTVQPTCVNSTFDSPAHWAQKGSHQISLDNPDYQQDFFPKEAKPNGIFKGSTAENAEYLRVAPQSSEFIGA
Procedure, shortened: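 A431 cells were plated at 20,000 per well, allowed 24 h to adhere, then given compound for 2.5 h (0.1% DMSO final). They were then stimulated with 100 ng/ml EGF for 30 min and lysed. HTRF measured Tyr1068-phospho and total EGFR at 665/620 nm, with pEGFR/total EGFR expressed as % of the 0 μM control.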

[4] = target: CtermHisTag-mEGFR Wild type (Homo sapiens, UniProt P00533); assay: biochemical
CtermHisTag-mEGFR Wild type, sequence (P00533 whole entry): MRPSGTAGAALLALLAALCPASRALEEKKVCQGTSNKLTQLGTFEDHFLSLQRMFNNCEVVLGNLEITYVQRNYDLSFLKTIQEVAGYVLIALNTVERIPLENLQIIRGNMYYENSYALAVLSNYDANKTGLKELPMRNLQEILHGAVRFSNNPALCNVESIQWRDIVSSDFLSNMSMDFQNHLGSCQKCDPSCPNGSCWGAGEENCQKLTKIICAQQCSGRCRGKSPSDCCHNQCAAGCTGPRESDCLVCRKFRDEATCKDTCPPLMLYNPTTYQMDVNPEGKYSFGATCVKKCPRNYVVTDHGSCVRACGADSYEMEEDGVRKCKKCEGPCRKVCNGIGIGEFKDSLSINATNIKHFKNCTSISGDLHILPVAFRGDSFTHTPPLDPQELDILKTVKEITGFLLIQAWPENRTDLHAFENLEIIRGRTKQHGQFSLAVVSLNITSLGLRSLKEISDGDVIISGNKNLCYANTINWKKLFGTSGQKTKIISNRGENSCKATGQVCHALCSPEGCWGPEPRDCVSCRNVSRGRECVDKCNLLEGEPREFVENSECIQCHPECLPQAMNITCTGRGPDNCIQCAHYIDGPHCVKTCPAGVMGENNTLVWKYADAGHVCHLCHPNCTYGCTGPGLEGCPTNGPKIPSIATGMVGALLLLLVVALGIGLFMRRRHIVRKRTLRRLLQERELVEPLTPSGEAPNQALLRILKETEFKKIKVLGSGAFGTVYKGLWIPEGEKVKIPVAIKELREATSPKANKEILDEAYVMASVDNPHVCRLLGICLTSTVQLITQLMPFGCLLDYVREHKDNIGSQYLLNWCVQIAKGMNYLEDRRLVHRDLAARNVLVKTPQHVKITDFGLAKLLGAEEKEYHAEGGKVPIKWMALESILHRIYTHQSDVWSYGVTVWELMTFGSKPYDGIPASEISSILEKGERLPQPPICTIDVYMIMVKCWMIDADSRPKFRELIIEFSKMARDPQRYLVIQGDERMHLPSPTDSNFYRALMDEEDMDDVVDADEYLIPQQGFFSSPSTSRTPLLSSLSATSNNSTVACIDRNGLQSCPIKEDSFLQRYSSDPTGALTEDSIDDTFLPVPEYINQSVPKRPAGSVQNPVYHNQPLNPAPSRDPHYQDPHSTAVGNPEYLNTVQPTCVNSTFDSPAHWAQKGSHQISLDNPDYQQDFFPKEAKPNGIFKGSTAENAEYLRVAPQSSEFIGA

IC50 [1] [nM]	IC50 [2] [nM]	IC50 [3] [nM]	IC50 [4] [nM]	Compound
< 500	< 500	> 3000	< 1000	C#Cc1cc(=O)n(C2CCCC2)c2nc(Nc3ccc(N4CCN(C)CC4)cc3)ncc12 [Example 78, 8-cyclopentyl-5-ethynyl-2-((4-(4-methylpiperazin-1-yl)phenyl)amino)pyrido[2,3-d]pyrimidin-7(8H)-one]
< 500	< 500	1000 to 3000	< 1000	C#Cc1cc(=O)n([C@H]2CC[C@@H](NC(C)=O)CC2)c2nc(Nc3ccc(N(C)CCN(C)C)cc3)ncc12 [Example 79, N-[(1s,4s)-4-{2-[(4-{[2-(Dimethylamino)ethyl](methyl)amino}phenyl)amino]-5-ethynyl-7-oxopyrido[2,3-d]pyrimidin-8-yl}cyclohexyl]acetamide]
< 500	500 to 1000	1000 to 3000	< 1000	C#Cc1cc(=O)n([C@H]2CC[C@@H](CO)CC2)c2nc(Nc3ccc(N(C)CCN(C)C)cc3)ncc12 [Example 80, 2-[(4-{[2-(Dimethylamino)ethyl](methyl)amino}phenyl)amino]-5-ethynyl-8-[(1s,4s)-4-(hydroxymethyl)cyclohexyl]pyrido[2,3-d]pyrimidin-7-one]
< 500	< 500	> 3000	< 1000	C#Cc1cc(=O)n([C@H]2CC[C@@H](NC(=O)CC)CC2)c2nc(Nc3ccc(N4CCN(C)CC4)cc3)ncc12 [Example 81, N-[(1s,4s)-4-(5-Ethynyl-2-{[4-(4-methylpiperazin-1-yl)phenyl]amino}-7-oxopyrido[2,3-d]pyrimidin-8-yl)cyclohexyl]propanamide]
< 500	< 500	> 3000	< 1000	C#Cc1cc(=O)n([C@H]2CC[C@@H](NC(=O)C(C)C)CC2)c2nc(Nc3ccc(N4CCN(C)CC4)cc3)ncc12 [Example 82, 2-Methyl-N-[(1s,4s)-4-(5-ethynyl-2-{[4-(4-methylpiperazin-1-yl)phenyl]amino}-7-oxopyrido[2,3-d]pyrimidin-8-yl)cyclohexyl]propanamide]
< 500	500 to 1000	1000 to 3000	< 1000	C#Cc1cc(=O)n(-c2ccc(OC)cc2OC)c2nc(Nc3ccc(N(C)CCN(C)C)cc3)ncc12 [Example 86, 8-(2,4-Dimethoxyphenyl)-2-[(4-{[2-(dimethylamino)ethyl](methyl)amino}phenyl)amino]-5-ethynylpyrido[2,3-d]pyrimidin-7-one]
< 500	< 500	> 3000	< 1000	C#Cc1cc(=O)n([C@H]2CC[C@H](NC(C)=O)CC2)c2nc(Nc3ccc(N4CCN(C)CC4)cc3)ncc12 [Example 87, N-[(1r,4r)-4-(5-Ethynyl-2-{[4-(4-methylpiperazin-1-yl)phenyl]amino}-7-oxopyrido[2,3-d]pyrimidin-8-yl)cyclohexyl]acetamide]
> 3000	> 3000	> 3000	1000 to 10000	C#Cc1cc(=O)n(-c2ccc(NC(=O)C=C)cc2)c2nc(Nc3ccccc3OC)ncc12 [Example 88, N-(4-(5-Ethynyl-2-((2-methoxyphenyl)amino)-7-oxopyrido[2,3-d]pyrimidin-8(7H)-yl)phenyl)acrylamide]
< 500	< 500	> 3000	< 1000	C#Cc1cc(=O)n([C@H]2CC[C@H](NC(=O)c3ccnnc3)CC2)c2nc(Nc3ccc(N4CCN(C)CC4)cc3)ncc12 [Example 89, N-[(1r,4r)-4-(5-Ethynyl-2-{[4-(4-methylpiperazin-1-yl)phenyl]amino}-7-oxopyrido[2,3-d]pyrimidin-8-yl)cyclohexyl]pyridazine-4-carboxamide]
1000 to 3000	> 3000	> 3000	1000 to 10000	C#Cc1cc(=O)n([C@H]2CC[C@@H](NC(=O)CN(C)C)CC2)c2nc(Nc3ccccc3OC)ncc12 [Example 90, 2-(Dimethylamino)-N-[(1s,4s)-4-{5-ethynyl-2-[(2-methoxyphenyl)amino]-7-oxopyrido[2,3-d]pyrimidin-8-yl}cyclohexyl]acetamide]
